Each structure is given as a SMILES string. Bounds are passed on as bounds.

One assay deals with MDA-MB231/ATCC. Kind of assay: NCI-60 single-dose screen. Particulars: Homo sapiens, MDA-MB-231, single dose 10 µM, '-' = no inhibition, read-out: % Growth Inhibition. The format is cell-based. The gist of the method: (§1)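 Single concentration (10 μM) per compound, assayed by the NCI DTP against its 60-line panel covering leukemia, lung, colon, CNS, melanoma, ovarian, renal, prostate and breast cancers.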
For the compound `COc1ccc(-c2cc(-c3ccc(Cl)cc3)nc(SC(C)C)n2)cc1` [Compound 12, 4-(4-Chlorophenyl)-2-(isopropylthio)-6-(4-methoxyphenyl)pyrimidine], the inhibition (commonly the drop in the measured response relative to a control, in per cent) at 10 µM was 4.87%.

The test system of the next assay is SR. The experiment in a line: NCI-60 single-dose screen. The following applies: Homo sapiens, single dose 10 µM, '-' = no inhibition, read-out: % Growth Inhibition. The format is cell-based. The gist of the method:
as §1
Regarding `COc1ccc(-c2cc(-c3ccc(Cl)cc3)nc(SC(C)C)n2)cc1` [Compound 12, 4-(4-Chlorophenyl)-2-(isopropylthio)-6-(4-methoxyphenyl)pyrimidine], the inhibition at 10 µM is 47.1%.

The subject of another assay is K-562. Kind of assay: NCI-60 single-dose screen. The format is cell-based. The following applies: Homo sapiens, K562, single dose 10 µM, '-' = no inhibition, read-out: % Growth Inhibition. The gist of the method: as §1
With `COc1ccc(-c2cc(-c3ccc(Cl)cc3)nc(SC(C)C)n2)cc1` [Compound 12, 4-(4-Chlorophenyl)-2-(isopropylthio)-6-(4-methoxyphenyl)pyrimidine], the inhibition at 10 µM worked out at 30.9%.

Another assay relates to OVCAR-4. The experiment in a line: NCI-60 single-dose screen. The format is cell-based. The following applies: Homo sapiens, single dose 10 µM, '-' = no inhibition, read-out: % Growth Inhibition. The gist of the method:
as §1
In the case of `COc1ccc(-c2cc(-c3ccc(Cl)cc3)nc(SC(C)C)n2)cc1` [Compound 12, 4-(4-Chlorophenyl)-2-(isopropylthio)-6-(4-methoxyphenyl)pyrimidine], the inhibition at 10 µM came to 11.8%.

Another assay has as its system LOX IMVI. Kind of assay: NCI-60 single-dose screen. In kind it is cell-based. The following applies: Homo sapiens, single dose 10 µM, '-' = no inhibition, read-out: % Growth Inhibition. The essentials:
as §1
Turning to `COc1ccc(-c2cc(-c3ccc(Cl)cc3)nc(SC(C)C)n2)cc1` [Compound 12, 4-(4-Chlorophenyl)-2-(isopropylthio)-6-(4-methoxyphenyl)pyrimidine], the inhibition at 10 µM was determined as 13.6%.

The next assay relates to IGROV1. The experiment in a line: NCI-60 single-dose screen. The following applies: Homo sapiens, IGROV-1, single dose 10 µM, '-' = no inhibition, read-out: % Growth Inhibition. In kind it is cell-based. The gist of the method:
as §1
As to `COc1ccc(-c2cc(-c3ccc(Cl)cc3)nc(SC(C)C)n2)cc1` [Compound 12, 4-(4-Chlorophenyl)-2-(isopropylthio)-6-(4-methoxyphenyl)pyrimidine], the inhibition at 10 µM was less than 0%.

For a further assay, the system named is NCI-H522. The experiment in a line: NCI-60 single-dose screen. The format is cell-based. The following applies: Homo sapiens, single dose 10 µM, '-' = no inhibition, read-out: % Growth Inhibition. The essentials: as §1
Take `COc1ccc(-c2cc(-c3ccc(Cl)cc3)nc(SC(C)C)n2)cc1` [Compound 12, 4-(4-Chlorophenyl)-2-(isopropylthio)-6-(4-methoxyphenyl)pyrimidine]: the inhibition at 10 µM amounted to 21.6%.

The test system of the next assay is ACHN 1. The experiment in a line: NCI-60 single-dose screen. The format is cell-based. Particulars: Homo sapiens, single dose 10 µM, '-' = no inhibition, read-out: % Growth Inhibition. The gist of the method: as §1
With `COc1ccc(-c2cc(-c3ccc(Cl)cc3)nc(SC(C)C)n2)cc1` [Compound 12, 4-(4-Chlorophenyl)-2-(isopropylthio)-6-(4-methoxyphenyl)pyrimidine], the inhibition at 10 µM is less than 0%.

A further assay relates to 786-0. The experiment in a line: NCI-60 single-dose screen. The format is cell-based. The following applies: Homo sapiens, single dose 10 µM, '-' = no inhibition, read-out: % Growth Inhibition. The essentials:
as §1
For `COc1ccc(-c2cc(-c3ccc(Cl)cc3)nc(SC(C)C)n2)cc1` [Compound 12, 4-(4-Chlorophenyl)-2-(isopropylthio)-6-(4-methoxyphenyl)pyrimidine], the inhibition at 10 µM worked out at 7.48%.

The subject of the next assay is MDA-MB-468. The experiment in a line: NCI-60 single-dose screen. The format is cell-based. Particulars: Homo sapiens, single dose 10 µM, '-' = no inhibition, read-out: % Growth Inhibition. The essentials: as §1
Regarding `COc1ccc(-c2cc(-c3ccc(Cl)cc3)nc(SC(C)C)n2)cc1` [Compound 12, 4-(4-Chlorophenyl)-2-(isopropylthio)-6-(4-methoxyphenyl)pyrimidine], the inhibition at 10 µM turned out to be 35.1%.

A further assay concerns HCT-15. The experiment in a line: NCI-60 single-dose screen. In kind it is cell-based. The following applies: Homo sapiens, single dose 10 µM, '-' = no inhibition, read-out: % Growth Inhibition. The essentials: as §1
Take `COc1ccc(-c2cc(-c3ccc(Cl)cc3)nc(SC(C)C)n2)cc1` [Compound 12, 4-(4-Chlorophenyl)-2-(isopropylthio)-6-(4-methoxyphenyl)pyrimidine]: the inhibition at 10 µM is 38.7%.

In a further assay the test system is A549/ATCC. Kind of assay: NCI-60 single-dose screen. The format is cell-based. Particulars: Homo sapiens, single dose 10 µM, '-' = no inhibition, read-out: % Growth Inhibition. The essentials:
as §1
On to `COc1ccc(-c2cc(-c3ccc(Cl)cc3)nc(SC(C)C)n2)cc1` [Compound 12, 4-(4-Chlorophenyl)-2-(isopropylthio)-6-(4-methoxyphenyl)pyrimidine], for which the inhibition at 10 µM amounted to 15.9%.

The next assay deals with CCRF-CEM. Kind of assay: NCI-60 single-dose screen. The format is cell-based. The following applies: Homo sapiens, single dose 10 µM, '-' = no inhibition, read-out: % Growth Inhibition. The gist of the method: as §1
Regarding `COc1ccc(-c2cc(-c3ccc(Cl)cc3)nc(SC(C)C)n2)cc1` [Compound 12, 4-(4-Chlorophenyl)-2-(isopropylthio)-6-(4-methoxyphenyl)pyrimidine], the inhibition at 10 µM amounted to 24.1%.

Another assay relates to SF-539. Kind of assay: NCI-60 single-dose screen. The format is cell-based. Particulars: Homo sapiens, single dose 10 µM, '-' = no inhibition, read-out: % Growth Inhibition. The gist of the method: as §1
For the compound `COc1ccc(-c2cc(-c3ccc(Cl)cc3)nc(SC(C)C)n2)cc1` [Compound 12, 4-(4-Chlorophenyl)-2-(isopropylthio)-6-(4-methoxyphenyl)pyrimidine], the inhibition at 10 µM was 6.88%.

A further assay concerns SK-OV-3. The experiment in a line: NCI-60 single-dose screen. In kind it is cell-based. The following applies: Homo sapiens, single dose 10 µM, '-' = no inhibition, read-out: % Growth Inhibition. The essentials: as §1
`COc1ccc(-c2cc(-c3ccc(Cl)cc3)nc(SC(C)C)n2)cc1` [Compound 12, 4-(4-Chlorophenyl)-2-(isopropylthio)-6-(4-methoxyphenyl)pyrimidine]: the inhibition at 10 µM was less than 0%.

The next assay concerns OVCAR-5. The experiment in a line: NCI-60 single-dose screen. The format is cell-based. Particulars: Homo sapiens, single dose 10 µM, '-' = no inhibition, read-out: % Growth Inhibition. The gist of the method:
as §1
For the compound `COc1ccc(-c2cc(-c3ccc(Cl)cc3)nc(SC(C)C)n2)cc1` [Compound 12, 4-(4-Chlorophenyl)-2-(isopropylthio)-6-(4-methoxyphenyl)pyrimidine], the inhibition at 10 µM is less than 0%.

Another assay has as its system NCI/ADR-RES. The experiment in a line: NCI-60 single-dose screen. In kind it is cell-based. Particulars: Homo sapiens, single dose 10 µM, '-' = no inhibition, read-out: % Growth Inhibition. The gist of the method:
as §1
As to `COc1ccc(-c2cc(-c3ccc(Cl)cc3)nc(SC(C)C)n2)cc1` [Compound 12, 4-(4-Chlorophenyl)-2-(isopropylthio)-6-(4-methoxyphenyl)pyrimidine], the inhibition at 10 µM was found to be 11.2%.

A further assay concerns T-47D. The experiment in a line: NCI-60 single-dose screen. The format is cell-based. Particulars: Homo sapiens, T47D, single dose 10 µM, '-' = no inhibition, read-out: % Growth Inhibition. The essentials: as §1
For the compound `COc1ccc(-c2cc(-c3ccc(Cl)cc3)nc(SC(C)C)n2)cc1` [Compound 12, 4-(4-Chlorophenyl)-2-(isopropylthio)-6-(4-methoxyphenyl)pyrimidine], the inhibition at 10 µM turned out to be 40.4%.

For the next assay, the system named is EKVX. Kind of assay: NCI-60 single-dose screen. Particulars: Homo sapiens, single dose 10 µM, '-' = no inhibition, read-out: % Growth Inhibition. In kind it is cell-based. The gist of the method:
as §1
As to `COc1ccc(-c2cc(-c3ccc(Cl)cc3)nc(SC(C)C)n2)cc1` [Compound 12, 4-(4-Chlorophenyl)-2-(isopropylthio)-6-(4-methoxyphenyl)pyrimidine], the inhibition at 10 µM is 16.8%.

The next assay deals with A498. The experiment in a line: NCI-60 single-dose screen. The following applies: Homo sapiens, single dose 10 µM, '-' = no inhibition, read-out: % Growth Inhibition. In kind it is cell-based. The gist of the method: as §1
For `COc1ccc(-c2cc(-c3ccc(Cl)cc3)nc(SC(C)C)n2)cc1` [Compound 12, 4-(4-Chlorophenyl)-2-(isopropylthio)-6-(4-methoxyphenyl)pyrimidine], the inhibition at 10 µM is less than 0%.

The subject of a further assay is UACC-257. The experiment in a line: NCI-60 single-dose screen. In kind it is cell-based. Particulars: Homo sapiens, single dose 10 µM, '-' = no inhibition, read-out: % Growth Inhibition. The essentials:
as §1
`COc1ccc(-c2cc(-c3ccc(Cl)cc3)nc(SC(C)C)n2)cc1` [Compound 12, 4-(4-Chlorophenyl)-2-(isopropylthio)-6-(4-methoxyphenyl)pyrimidine]: the inhibition at 10 µM amounted to 4.1%.

The subject of the next assay is HOP-62. Kind of assay: NCI-60 single-dose screen. Particulars: Homo sapiens, single dose 10 µM, '-' = no inhibition, read-out: % Growth Inhibition. In kind it is cell-based. The essentials: as §1
As for `COc1ccc(-c2cc(-c3ccc(Cl)cc3)nc(SC(C)C)n2)cc1` [Compound 12, 4-(4-Chlorophenyl)-2-(isopropylthio)-6-(4-methoxyphenyl)pyrimidine], the inhibition at 10 µM is less than 0%.

In another assay the test system is RPMI-8226. Kind of assay: NCI-60 single-dose screen. In kind it is cell-based. Particulars: Homo sapiens, single dose 10 µM, '-' = no inhibition, read-out: % Growth Inhibition. The gist of the method:
as §1
`COc1ccc(-c2cc(-c3ccc(Cl)cc3)nc(SC(C)C)n2)cc1` [Compound 12, 4-(4-Chlorophenyl)-2-(isopropylthio)-6-(4-methoxyphenyl)pyrimidine]: the inhibition at 10 µM amounted to 26.7%.
